Laboratory results taken from ChEMBL document CHEMBL1201861, “Genomics of Drug Sensitity in Cancer screening data, Wellcome Trust Sanger Institute”.
pIC50: −log10 of the molar value.

Experiments:
Test in all cases: cells
ES5 = type: functional, cell-based, Homo sapiens; details: Homo sapiens, ES5;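 further: growth inhibition of human ES5 cells, read out by a cell viability assay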
786-0 = type: functional, cell-based, Homo sapiens; details: Homo sapiens
Description: SANGER: Inhibition of human 786-0 cell growth in a cell viability assay.

GB-1 = type: functional, cell-based, Homo sapiens; details: Homo sapiens, GB-1;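 further: growth of GB-1 cells judged by a viability assay, IC50 marks the concentration inhibiting growth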
Description: SANGER: Inhibition of human GB-1 cell growth in a cell viability assay.

A2780 = type: functional, cell-based, Homo sapiens; details: Homo sapiens, A2780;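 further: growth inhibition of A2780 cells, read out with a cell viability assay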
Description: SANGER: Inhibition of human A2780 cell growth in a cell viability assay.

SCH = type: functional, cell-based, Homo sapiens; details: Homo sapiens, SCH;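 further: growth inhibition of human SCH cells, read out in a cell viability assay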
Description: SANGER: Inhibition of human SCH cell growth in a cell viability assay.

OCI-AML2 = type: functional, cell-based; details: Homo sapiens;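 further: growth inhibition of OCI-AML2 cells, read out with a cell viability assay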
Description: SANGER: Inhibition of human OCI-AML2 cell growth in a cell viability assay.

HCC1954 = type: functional, cell-based, Homo sapiens; details: Homo sapiens, HCC1954;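 further: growth inhibition of human HCC1954 cells, read out with a cell viability assay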
Description: SANGER: Inhibition of human HCC1954 cell growth in a cell viability assay.

HuTu80 = type: functional, cell-based, Homo sapiens, HUTU-80; details: Homo sapiens, HuTu80;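 further: growth inhibition of HuTu80 human cells, determined with a cell viability readout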
Description: SANGER: Inhibition of human HUTU-80 cell growth in a cell viability assay.

RKO = type: functional, cell-based, Homo sapiens; details: Homo sapiens, RKO;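 further: growth inhibition of human RKO cells, read out with a cell viability assay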
Description: SANGER: Inhibition of human RKO cell growth in a cell viability assay.

RT-112 = type: functional, cell-based, Homo sapiens; details: Homo sapiens, RT-112
FTC-133 = type: functional, cell-based, Homo sapiens; details: Homo sapiens, FTC-133
Capan-2 = type: functional, cell-based, Homo sapiens; details: Homo sapiens, Capan-2;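 further: Capan-2 cell growth inhibition, read out with a viability assay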
Description: SANGER: Inhibition of human Capan-2 cell growth in a cell viability assay.

LC-2-ad = type: functional, cell-based, Homo sapiens; details: Homo sapiens, LC-2-ad;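 further: growth inhibition of human LC-2-ad cells, read out with a cell viability assay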
Description: SANGER: Inhibition of human LC-2-ad cell growth in a cell viability assay.

KYSE-70 cell line = type: functional, cell-based, Homo sapiens; details: Homo sapiens, KYSE-70;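 further: cell viability assay read-out, with IC50 expressing suppression of KYSE-70 cell growth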
Description: SANGER: Inhibition of human KYSE-70 cell growth in a cell viability assay.

HCE-T = type: functional, cell-based, Homo sapiens; details: Homo sapiens, HCE-T;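 further: cell viability assay read-out, reporting inhibition of HCE-T cell growth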
Description: SANGER: Inhibition of human HCE-T cell growth in a cell viability assay.

LoVo = type: functional, cell-based; details: Homo sapiens;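 further: growth inhibition of human LoVo cells, read out with a cell viability assay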
Description: SANGER: Inhibition of human LoVo cell growth in a cell viability assay.

SNU-387 = type: functional, cell-based, Homo sapiens; details: Homo sapiens, SNU-387
Description: SANGER: Inhibition of human SNU-387 cell growth in a cell viability assay.

SW-620 = type: functional, cell-based, Homo sapiens; details: Homo sapiens, SW-620;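 further: growth inhibition of human SW-620 cells, measured by a cell viability assay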
Description: SANGER: Inhibition of human SW620 cell growth in a cell viability assay.

KNS-81-FD = type: functional, cell-based, Homo sapiens; details: Homo sapiens, KNS-81-FD;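 further: growth inhibition of KNS-81-FD cells, read out with a cell viability assay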
Description: SANGER: Inhibition of human KNS-81-FD cell growth in a cell viability assay.

MS-1 = type: functional, cell-based; details: Homo sapiens;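 further: growth inhibition of MS-1 cells, read out by cell viability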
Description: SANGER: Inhibition of human MS-1 cell growth in a cell viability assay.

NCI-H810 = type: functional, cell-based, Homo sapiens; details: Homo sapiens, NCI-H810;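 further: IC50 reflects inhibition of cancer cell line growth, read out with a cell viability assay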
Description: SANGER: Inhibition of human NCI-H810 cell growth in a cell viability assay.

SF-126 = type: functional, cell-based, Homo sapiens; details: Homo sapiens, SF-126;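 further: growth inhibition of human SF126 cells, read out with a cell viability assay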
Description: SANGER: Inhibition of human SF126 cell growth in a cell viability assay.

TGBC24TKB = type: functional, cell-based, Homo sapiens; details: Homo sapiens, TGBC24TKB;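 further: growth inhibition of human TGBC24TKB cells, read out with a cell viability assay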
Description: SANGER: Inhibition of human TGBC24TKB cell growth in a cell viability assay.

L-363 = type: functional, cell-based; details: Homo sapiens
Description: SANGER: Inhibition of human L-363 cell growth in a cell viability assay.

KP-N-YN = type: functional, cell-based; details: Homo sapiens;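 further: growth inhibition of KP-N-YN cells, read out with a cell viability assay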
Description: SANGER: Inhibition of human KP-N-YN cell growth in a cell viability assay.

MEG-01 = type: functional, cell-based; details: Homo sapiens;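 further: growth inhibition of MEG-01 cells, read out by a cell viability assay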
Description: SANGER: Inhibition of human MEG-01 cell growth in a cell viability assay.

NB10 = type: functional, cell-based, Homo sapiens; details: Homo sapiens, NB10;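 further: growth inhibition of NB10 cells, read out by a cell viability assay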
Description: SANGER: Inhibition of human NB10 cell growth in a cell viability assay.

KYSE-510 = type: functional, cell-based, Homo sapiens; details: Homo sapiens, KYSE-510;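 further: cell viability readout used to measure how strongly growth of the cell line is suppressed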
Description: SANGER: Inhibition of human KYSE-510 cell growth in a cell viability assay.

AN3-CA = type: functional, cell-based; details: Homo sapiens;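 further: growth inhibition of human AN3-CA cells measured by a cell viability assay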
Description: SANGER: Inhibition of human AN3-CA cell growth in a cell viability assay.

NCI-H1355 = type: functional, cell-based, Homo sapiens; details: Homo sapiens, NCI-H1355;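 further: growth inhibition of human NCI-H1355 cells, read out by a cell viability assay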
Description: SANGER: Inhibition of human NCI-H1355 cell growth in a cell viability assay.

CHL-1 = type: functional, cell-based, Homo sapiens; details: Homo sapiens, CHL-1;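 further: cell growth inhibition, read out with a cell viability assay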
Description: SANGER: Inhibition of human CHL-1 cell growth in a cell viability assay.

LOX IMVI = type: functional, cell-based; details: Homo sapiens
Description: SANGER: Inhibition of human LOXIMVI cell growth in a cell viability assay.

SK-MEL-24 = type: functional, cell-based; details: Homo sapiens;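 further: growth inhibition read out by a cell viability assay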
Description: SANGER: Inhibition of human SK-MEL-24 cell growth in a cell viability assay.

SCC-25 = type: functional, cell-based, Homo sapiens; details: Homo sapiens, SCC-25;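 further: growth inhibition of SCC-25 cells, measured with a cell viability assay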
TYK-nu = type: functional, cell-based, Homo sapiens; details: Homo sapiens, TYK-nu;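 further: growth inhibition of human TYK-nu cells, read out by a cell viability assay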
Description: SANGER: Inhibition of human TYK-nu cell growth in a cell viability assay.

KYSE-520 cell line = type: functional, cell-based, Homo sapiens; details: Homo sapiens, KYSE-520;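 further: growth inhibition of human KYSE-520 cells, read out with a viability assay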
Description: SANGER: Inhibition of human KYSE-520 cell growth in a cell viability assay.

ES7 = type: functional, cell-based, Homo sapiens; details: Homo sapiens, ES7;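 further: growth inhibition of cultured human ES7 cells, read out as cell viability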
Description: SANGER: Inhibition of human ES7 cell growth in a cell viability assay.

HMV-2 cell line = type: functional, cell-based, Homo sapiens; details: Homo sapiens, HMV-2;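 further: growth inhibition of HMV-II cells, read out with a cell viability assay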
Description: SANGER: Inhibition of human HMV-II cell growth in a cell viability assay.

HuP-T4 = type: functional, cell-based, Homo sapiens; details: Homo sapiens, HuP-T4;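 further: cell viability assay measuring how much HuP-T4 cell growth is inhibited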
Description: SANGER: Inhibition of human HuP-T4 cell growth in a cell viability assay.

NB7 = type: functional, cell-based; details: Homo sapiens;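 further: growth inhibition of NB7 cells, read out with a cell viability assay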
Description: SANGER: Inhibition of human NB7 cell growth in a cell viability assay.

TE-10 = type: functional, cell-based, Homo sapiens; details: Homo sapiens, TE-10;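 further: growth inhibition of TE-10 cells, measured by a cell viability assay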
NCI-H1650 = type: functional, cell-based, Homo sapiens; details: Homo sapiens, NCI-H1650;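 further: growth inhibition of human NCI-H1650 cells measured by a cell viability assay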
Description: SANGER: Inhibition of human NCI-H1650 cell growth in a cell viability assay.

SNU-5 = type: functional, cell-based; details: Homo sapiens;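 further: cell viability readout used to measure growth inhibition in human NCI-SNU-5 cells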
Description: SANGER: Inhibition of human NCI-SNU-5 cell growth in a cell viability assay.

OVCAR-3 = type: functional, cell-based, Homo sapiens; details: Homo sapiens, OVCAR-3;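 further: growth inhibition of human OVCAR-3 cells, determined by a cell viability assay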
Description: SANGER: Inhibition of human OVCAR-3 cell growth in a cell viability assay.

JVM-3 = type: functional, cell-based; details: Homo sapiens;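 further: growth inhibition of human JVM-3 cells, read out with a cell viability assay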
Description: SANGER: Inhibition of human JVM-3 cell growth in a cell viability assay.

SK-LU-1 = type: functional, cell-based, Homo sapiens; details: Homo sapiens, SK-LU-1;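 further: cell viability assay measuring growth inhibition of human SK-LU-1 cells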
Description: SANGER: Inhibition of human SK-LU-1 cell growth in a cell viability assay.

8505C = type: functional, cell-based, Homo sapiens; details: Homo sapiens, 8505C
Description: SANGER: Inhibition of human 8505C cell growth in a cell viability assay.

NCI-H520 = type: functional, cell-based, Homo sapiens; details: Homo sapiens, NCI-H520;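 further: growth inhibition of NCI-H520 cells, measured by a cell viability assay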
Description: SANGER: Inhibition of human NCI-H520 cell growth in a cell viability assay.

SJSA-1 = type: functional, cell-based, Homo sapiens; details: Homo sapiens, SJSA-1;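 further: growth inhibition of human SJSA-1 cells, read out through a cell viability measurement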
Description: SANGER: Inhibition of human SJSA-1 cell growth in a cell viability assay.

MN-60 = type: functional, cell-based; details: Homo sapiens;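 further: growth inhibition of the MN-60 cell line, determined with a cell viability assay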
Description: SANGER: Inhibition of human MN-60 cell growth in a cell viability assay.

BB49-HNC = type: functional, cell-based, Homo sapiens; details: Homo sapiens, BB49-HNC;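 further: cell viability assay read-out, reported as inhibition of BB49-HNC cell growth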
Description: SANGER: Inhibition of human BB49-HNC cell growth in a cell viability assay.

YAPC = type: functional, cell-based, Homo sapiens; details: Homo sapiens, YAPC;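 further: growth inhibition of YAPC cells, measured with a cell viability assay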
Description: SANGER: Inhibition of human YAPC cell growth in a cell viability assay.

CN(C)C/C=C/C(=O)Nc1cc2c(Nc3ccc(F)c(Cl)c3)ncnc2cc1O[C@H]1CCOC1 [AFATINIB]
pIC50 (ES5): < 6.30
pIC50 (786-0): < 6.30
pIC50 (GB-1): < 6.30
pIC50 (A2780): < 6.30
pIC50 (SCH): < 6.30
pIC50 (OCI-AML2): < 6.30
pIC50 (HCC1954): < 6.30
pIC50 (HuTu80): < 6.30
pIC50 (RKO): < 6.30
pIC50 (RT-112): < 6.30
pIC50 (FTC-133): < 6.30
pIC50 (Capan-2): < 6.30
pIC50 (LC-2-ad): < 6.30
pIC50 (KYSE-70 cell line): < 6.30
pIC50 (HCE-T): < 6.30
pIC50 (LoVo): < 6.30
pIC50 (SNU-387): < 6.30
pIC50 (SW-620): < 6.30
pIC50 (KNS-81-FD): < 6.30
pIC50 (MS-1): < 6.30
pIC50 (NCI-H810): < 6.30
pIC50 (SF-126): < 6.30
pIC50 (TGBC24TKB): < 6.30
pIC50 (L-363): < 6.30
pIC50 (KP-N-YN): < 6.30
pIC50 (MEG-01): < 6.30
pIC50 (NB10): < 6.30
pIC50 (KYSE-510): < 6.30
pIC50 (AN3-CA): < 6.30
pIC50 (NCI-H1355): < 6.30
pIC50 (CHL-1): 7.74
pIC50 (LOX IMVI): < 6.30
pIC50 (SK-MEL-24): < 6.30
pIC50 (SCC-25): < 6.30
pIC50 (TYK-nu): < 6.30
pIC50 (KYSE-520 cell line): < 6.30
pIC50 (ES7): < 6.30
pIC50 (HMV-2 cell line): < 6.30
pIC50 (HuP-T4): < 6.30
pIC50 (NB7): < 6.30
pIC50 (TE-10): < 6.30
pIC50 (NCI-H1650): < 6.30
pIC50 (SNU-5): < 6.30
pIC50 (OVCAR-3): < 6.30
pIC50 (JVM-3): < 6.30
pIC50 (SK-LU-1): < 6.30
pIC50 (8505C): < 6.30
pIC50 (NCI-H520): < 6.30
pIC50 (SJSA-1): < 6.30
pIC50 (MN-60): < 6.30
pIC50 (BB49-HNC): < 6.30
pIC50 (YAPC): < 6.30

CC(=O)O[C@@]12CO[C@@H]1C[C@H](O)[C@@]1(C)C(=O)[C@H](O)C3=C(C)[C@@H](OC(=O)[C@H](O)[C@@H](NC(=O)OC(C)(C)C)c4ccccc4)C[C@@](O)([C@@H](OC(=O)c4ccccc4)[C@H]21)C3(C)C [DOCETAXEL]
pIC50 (ES5): 9.04
pIC50 (786-0): 8.10
pIC50 (GB-1): 8.29
pIC50 (A2780): 8.47
pIC50 (SCH): 8.09
pIC50 (OCI-AML2): < 8.00
pIC50 (HCC1954): < 8.00
pIC50 (RKO): 9.00
pIC50 (RT-112): 8.93
pIC50 (FTC-133): 9.31
pIC50 (Capan-2): < 8.00
pIC50 (LC-2-ad): 8.47
pIC50 (KYSE-70 cell line): 8.20
pIC50 (HCE-T): 9.79
pIC50 (LoVo): < 8.00
pIC50 (SNU-387): 8.58
pIC50 (SW-620): 8.40
pIC50 (KNS-81-FD): 8.40
pIC50 (MS-1): < 8.00
pIC50 (NCI-H810): 8.21
pIC50 (SF-126): 8.48
pIC50 (TGBC24TKB): 8.11
pIC50 (L-363): 8.42
pIC50 (KP-N-YN): < 8.00
pIC50 (MEG-01): < 8.00
pIC50 (NB10): < 8.00
pIC50 (KYSE-510): 9.08
pIC50 (AN3-CA): 8.30
pIC50 (NCI-H1355): 8.17
pIC50 (CHL-1): 9.02
pIC50 (LOX IMVI): 8.93
pIC50 (SK-MEL-24): < 8.00
pIC50 (SCC-25): 9.17
pIC50 (TYK-nu): 8.63
pIC50 (KYSE-520 cell line): 8.15
pIC50 (ES7): 9.41
pIC50 (HMV-2 cell line): < 8.00
pIC50 (HuP-T4): 8.17
pIC50 (NB7): < 8.00
pIC50 (TE-10): 8.60
pIC50 (NCI-H1650): < 8.00
pIC50 (SNU-5): 8.26
pIC50 (OVCAR-3): 8.39
pIC50 (JVM-3): 8.63
pIC50 (SK-LU-1): < 8.00
pIC50 (8505C): 9.07
pIC50 (NCI-H520): 8.43
pIC50 (SJSA-1): 9.21
pIC50 (MN-60): < 8.00
pIC50 (BB49-HNC): 8.67
pIC50 (YAPC): < 8.00
